Results as given in PubChem BioAssay AID1963981 (Molecular Pharmacology Branch, DTP, NCI, 2024).
Blank lines part the entries; values can stand above or below the molecule they belong to.

System: 354836-022-R-J1-PDC multicell spheroid viability
Assay: Anticancer human tumor 354836-022-R-J1-PDC patient-derived head and neck squamous cell carcinoma cell line growth inhibition [PI3K]
Settings: for viability, T/C: stronger effect = lower value
Method in brief: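 Three cell types, namely tumor cells, endothelial cells and mesenchymal stem cells, formed each spheroid. Combinations with four PI3K inhibitors were screened at clinically achievable concentrations decreasing by half-log, and spheroid viability was recorded.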

[1] = curve of first compound, second compound 0.0316 µM
[2] = curve of first compound, second compound 0.1 µM
[3] = curve of first compound, second compound 0.316 µM
[4] = curve of first compound, second compound 1 µM
[5] = curve of first compound, second compound 3.16 µM
[6] = curve of first compound, second compound 10 µM
[7] = second compound 0.0316 µM, first compound 0.0316 µM
[8] = second compound 0.0316 µM, first compound 0.1 µM
[9] = second compound 0.0316 µM, first compound 0.316 µM
[10] = second compound 0.0316 µM, first compound 1 µM
[11] = second compound 0.0316 µM, first compound 3.16 µM
[12] = second compound 0.0316 µM, first compound 10 µM
[13] = second compound 0.1 µM, first compound 0.0316 µM
[14] = second compound 0.1 µM, first compound 0.1 µM
[15] = second compound 0.1 µM, first compound 0.316 µM
[16] = second compound 0.1 µM, first compound 1 µM
[17] = second compound 0.1 µM, first compound 3.16 µM
[18] = second compound 0.1 µM, first compound 10 µM
[19] = second compound 0.316 µM, first compound 0.0316 µM
[20] = second compound 0.316 µM, first compound 0.1 µM
[21] = second compound 0.316 µM, first compound 0.316 µM
[22] = second compound 0.316 µM, first compound 1 µM
[23] = second compound 0.316 µM, first compound 3.16 µM
[24] = second compound 0.316 µM, first compound 10 µM
[25] = second compound 1 µM, first compound 0.0316 µM
[26] = second compound 1 µM, first compound 0.1 µM
[27] = second compound 1 µM, first compound 0.316 µM
[28] = second compound 1 µM, first compound 1 µM
[29] = second compound 1 µM, first compound 3.16 µM
[30] = second compound 1 µM, first compound 10 µM
[31] = second compound 3.16 µM, first compound 0.0316 µM
[32] = second compound 3.16 µM, first compound 0.1 µM
[33] = second compound 3.16 µM, first compound 0.316 µM
[34] = second compound 3.16 µM, first compound 1 µM
[35] = second compound 3.16 µM, first compound 3.16 µM
[36] = second compound 3.16 µM, first compound 10 µM
[37] = second compound 10 µM, first compound 0.0316 µM
[38] = second compound 10 µM, first compound 0.1 µM
[39] = second compound 10 µM, first compound 0.316 µM
[40] = second compound 10 µM, first compound 1 µM
[41] = second compound 10 µM, first compound 3.16 µM
[42] = second compound 10 µM, first compound 10 µM
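Note: spheroids exposed to agents for seven days before the viability read.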

SMILES: C#Cc1c(F)ccc2cc(O)cc(-c3ncc4c(N5CC6CCC(C5)N6)nc(OCC56CCCN5CC(F)C6)nc4c3F)c12 (stereo not drawn) + CC(Nc1ncnc2nc[nH]c12)c1cc2cccc(Cl)c2c(=O)n1-c1ccccc1
IC50 [1]: > 10 µM | IC50 [2]: > 10 µM | IC50 [3]: > 10 µM | IC50 [4]: > 10 µM | IC50 [5]: > 10 µM | IC50 [6]: > 10 µM | viability, T/C [7]: 94.8% | viability, T/C [8]: 85% | viability, T/C [9]: 88.6% | viability, T/C [10]: 105% | viability, T/C [11]: 85.5% | viability, T/C [12]: 96.4% | viability, T/C [13]: 84.9% | viability, T/C [14]: 105% | viability, T/C [15]: 96.4% | viability, T/C [16]: 96.2% | viability, T/C [17]: 110% | viability, T/C [18]: 102% | viability, T/C [19]: 85.4% | viability, T/C [20]: 110% | viability, T/C [21]: 103% | viability, T/C [22]: 108% | viability, T/C [23]: 98.3% | viability, T/C [24]: 89.9% | viability, T/C [25]: 91.1% | viability, T/C [26]: 86.9% | viability, T/C [27]: 100% | viability, T/C [28]: 92.3% | viability, T/C [29]: 96.4% | viability, T/C [30]: 74.9% | viability, T/C [31]: 95.4% | viability, T/C [32]: 105% | viability, T/C [33]: 96.3% | viability, T/C [34]: 110% | viability, T/C [35]: 99% | viability, T/C [36]: 70% | viability, T/C [37]: 95.3% | viability, T/C [38]: 82.5% | viability, T/C [39]: 84.5% | viability, T/C [40]: 80.8% | viability, T/C [41]: 78.4% | viability, T/C [42]: 75.1%

SMILES: C=CC(=O)N1CCN(c2nc(=O)n(-c3c(C)ccnc3C(C)C)c3nc(-c4c(O)cccc4F)c(F)cc23)C(C)C1 (stereo not drawn)
viability, T/C (compound 0.0316 µM): 114% [middle of 4 runs] | viability, T/C (compound 0.1 µM): 95.3% [middle of 4 runs] | viability, T/C (compound 0.316 µM): 99.3% [middle of 4 runs] | viability, T/C (compound 10 µM): 95.1% [middle of 4 runs] | IC50 (curve of compound): > 10 µM

SMILES: CNC(=O)c1ccc(N2C(=S)N(c3ccc(C#N)c(C(F)(F)F)c3)C(=O)C2(C)C)cc1F + CC(Nc1ncnc2nc[nH]c12)c1cc2cccc(Cl)c2c(=O)n1-c1ccccc1
IC50 [1]: > 10 µM | IC50 [2]: > 10 µM | IC50 [3]: > 10 µM | IC50 [4]: > 10 µM | IC50 [5]: > 10 µM | IC50 [6]: > 10 µM | viability, T/C [7]: 97.4% | viability, T/C [8]: 99.1% | viability, T/C [9]: 92.9% | viability, T/C [10]: 93% | viability, T/C [11]: 109% | viability, T/C [12]: 95.8% | viability, T/C [13]: 95.2% | viability, T/C [14]: 113% | viability, T/C [15]: 109% | viability, T/C [16]: 104% | viability, T/C [17]: 94.4% | viability, T/C [18]: 93.8% | viability, T/C [19]: 100% | viability, T/C [20]: 97.8% | viability, T/C [21]: 97.6% | viability, T/C [22]: 109% | viability, T/C [23]: 105% | viability, T/C [24]: 91.5% | viability, T/C [25]: 97% | viability, T/C [26]: 92.4% | viability, T/C [27]: 95.9% | viability, T/C [28]: 117% | viability, T/C [29]: 93.6% | viability, T/C [30]: 95% | viability, T/C [31]: 105% | viability, T/C [32]: 106% | viability, T/C [33]: 105% | viability, T/C [34]: 108% | viability, T/C [35]: 85.2% | viability, T/C [36]: 95.5% | viability, T/C [37]: 89.3% | viability, T/C [38]: 86.5% | viability, T/C [39]: 94.5% | viability, T/C [40]: 97% | viability, T/C [41]: 95.3% | viability, T/C [42]: 86.6%

The next lines start with results.

IC50 [1]: 6.08 µM | IC50 [2]: 5.56 µM | IC50 [3]: 5.31 µM | IC50 [4]: 4.97 µM | IC50 [5]: 3.43 µM | IC50 [6]: < 0.0316 µM
SMILES: CCCS(=O)(=O)Nc1ccc(F)c(C(=O)c2c[nH]c3ncc(-c4ccc(Cl)cc4)cc23)c1F + Cc1nc(NC(=O)N2CCCC2C(N)=O)sc1-c1ccnc(C(C)(C)C(F)(F)F)c1
viability, T/C [7]: 96.5% | viability, T/C [8]: 86.5% | viability, T/C [9]: 97.5% | viability, T/C [10]: 99.8% | viability, T/C [11]: 76.6% | viability, T/C [12]: 29.8% | viability, T/C [13]: 101% | viability, T/C [14]: 93.8% | viability, T/C [15]: 96.1% | viability, T/C [16]: 80.5% | viability, T/C [17]: 80.2% | viability, T/C [18]: 22.8% | viability, T/C [19]: 83.7% | viability, T/C [20]: 79.6% | viability, T/C [21]: 75.2% | viability, T/C [22]: 80% | viability, T/C [23]: 75.6% | viability, T/C [24]: 18.7% | viability, T/C [25]: 80.1% | viability, T/C [26]: 76.7% | viability, T/C [27]: 72% | viability, T/C [28]: 77% | viability, T/C [29]: 70.6% | viability, T/C [30]: 18% | viability, T/C [31]: 53.5% | viability, T/C [32]: 60.8% | viability, T/C [33]: 63.1% | viability, T/C [34]: 66.8% | viability, T/C [35]: 50.7% | viability, T/C [36]: 11.5% | viability, T/C [37]: 39.6% | viability, T/C [38]: 35.3% | viability, T/C [39]: 35.6% | viability, T/C [40]: 39.9% | viability, T/C [41]: 32% | viability, T/C [42]: 7.04%

IC50 [1]: > 3 µM | IC50 [2]: 2.65 µM | IC50 [3]: 2.67 µM | IC50 [4]: > 3 µM | IC50 [5]: > 3 µM | IC50 [6]: > 3 µM
SMILES: Cn1cnc2c(F)c(Nc3ccc(Br)cc3Cl)c(C(=O)NOCCO)cc21 + CC(Nc1ncnc2nc[nH]c12)c1cc2cccc(Cl)c2c(=O)n1-c1ccccc1
viability, T/C (second compound 0.0316 µM, first compound 0.00949 µM): 94.3% | viability, T/C (second compound 0.0316 µM, first compound 0.03 µM): 90.4% | viability, T/C (second compound 0.0316 µM, first compound 0.0949 µM): 87.4% | viability, T/C (second compound 0.0316 µM, first compound 0.3 µM): 71.9% | viability, T/C (second compound 0.0316 µM, first compound 0.949 µM): 69.4% | viability, T/C (second compound 0.0316 µM, first compound 3 µM): 49.4% | viability, T/C (second compound 0.1 µM, first compound 0.00949 µM): 89.9% | viability, T/C (second compound 0.1 µM, first compound 0.03 µM): 80.4% | viability, T/C (second compound 0.1 µM, first compound 0.0949 µM): 70.3% | viability, T/C (second compound 0.1 µM, first compound 0.3 µM): 81.3% | viability, T/C (second compound 0.1 µM, first compound 0.949 µM): 64.6% | viability, T/C (second compound 0.1 µM, first compound 3 µM): 47.7% | viability, T/C (second compound 0.316 µM, first compound 0.00949 µM): 89.7% | viability, T/C (second compound 0.316 µM, first compound 0.03 µM): 83.9% | viability, T/C (second compound 0.316 µM, first compound 0.0949 µM): 94.2% | viability, T/C (second compound 0.316 µM, first compound 0.3 µM): 72.1% | viability, T/C (second compound 0.316 µM, first compound 0.949 µM): 74.8% | viability, T/C (second compound 0.316 µM, first compound 3 µM): 46.6% | viability, T/C (second compound 1 µM, first compound 0.00949 µM): 90.5% | viability, T/C (second compound 1 µM, first compound 0.03 µM): 83.8% | viability, T/C (second compound 1 µM, first compound 0.0949 µM): 79.6% | viability, T/C (second compound 1 µM, first compound 0.3 µM): 81.2% | viability, T/C (second compound 1 µM, first compound 0.949 µM): 74.5% | viability, T/C (second compound 1 µM, first compound 3 µM): 55.6% | viability, T/C (second compound 3.16 µM, first compound 0.00949 µM): 99.5% | viability, T/C (second compound 3.16 µM, first compound 0.03 µM): 86.9% | viability, T/C (second compound 3.16 µM, first compound 0.0949 µM): 71.1% | viability, T/C (second compound 3.16 µM, first compound 0.3 µM): 88.8% | viability, T/C (second compound 3.16 µM, first compound 0.949 µM): 81% | viability, T/C (second compound 3.16 µM, first compound 3 µM): 63.5% | viability, T/C (second compound 10 µM, first compound 0.00949 µM): 85.5% | viability, T/C (second compound 10 µM, first compound 0.03 µM): 89.2% | viability, T/C (second compound 10 µM, first compound 0.0949 µM): 87.1% | viability, T/C (second compound 10 µM, first compound 0.3 µM): 77.1% | viability, T/C (second compound 10 µM, first compound 0.949 µM): 68.2% | viability, T/C (second compound 10 µM, first compound 3 µM): 54.8%
